Measured values taken from publication PMC8911752, “The Synthesis and Initial Evaluation of MerTK Targeted PET Agents” (Molecules, 2022).

Tests used:
[1] = system: kinome; design: method as in PMID 34038857; settings: at 100 nM, against the kinome; cited from earlier work
[2] = molecular target: T1, MerTK (Homo sapiens, UniProt Q12866); design: method as in PMID 34038857; settings: read-out: Ki against MerTK; cited from earlier work
T1 sequence (Q12866 21-999): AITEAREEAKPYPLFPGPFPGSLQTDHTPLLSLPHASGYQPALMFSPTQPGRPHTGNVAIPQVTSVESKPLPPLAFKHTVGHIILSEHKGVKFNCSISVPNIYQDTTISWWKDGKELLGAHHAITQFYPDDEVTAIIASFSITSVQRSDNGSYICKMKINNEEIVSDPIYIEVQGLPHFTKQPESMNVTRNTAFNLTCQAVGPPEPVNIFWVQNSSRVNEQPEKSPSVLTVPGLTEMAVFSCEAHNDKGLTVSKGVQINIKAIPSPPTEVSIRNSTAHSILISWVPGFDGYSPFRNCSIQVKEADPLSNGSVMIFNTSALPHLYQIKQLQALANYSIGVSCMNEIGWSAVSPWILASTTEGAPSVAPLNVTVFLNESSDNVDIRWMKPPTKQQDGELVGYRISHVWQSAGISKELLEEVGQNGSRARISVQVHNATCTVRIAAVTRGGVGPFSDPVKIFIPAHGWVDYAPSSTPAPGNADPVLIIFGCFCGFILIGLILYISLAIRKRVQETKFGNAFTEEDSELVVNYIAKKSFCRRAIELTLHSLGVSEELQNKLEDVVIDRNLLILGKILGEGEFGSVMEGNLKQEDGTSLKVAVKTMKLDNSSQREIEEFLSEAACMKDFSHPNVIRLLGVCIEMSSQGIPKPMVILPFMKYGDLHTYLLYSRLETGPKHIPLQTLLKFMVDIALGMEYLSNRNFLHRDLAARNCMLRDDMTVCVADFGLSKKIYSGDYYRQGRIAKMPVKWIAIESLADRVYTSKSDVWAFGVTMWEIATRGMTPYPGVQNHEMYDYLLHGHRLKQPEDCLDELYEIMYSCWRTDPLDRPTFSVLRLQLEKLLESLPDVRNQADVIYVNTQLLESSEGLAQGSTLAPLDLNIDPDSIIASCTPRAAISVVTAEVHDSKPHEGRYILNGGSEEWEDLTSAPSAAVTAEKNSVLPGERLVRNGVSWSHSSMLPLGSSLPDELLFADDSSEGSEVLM

[3] = 1-octanol/water partition coefficient (LogP) by gamma counting; assay type: physicochemical; settings: pH 7.4, sample pH around 7.4, n = 3, mean ± SD
Method: In order to evaluate the hydrophilicity and lipophilicity of this fluorine-18 labeled agent [^18F]-MerTK-6, we measured the 1-octanol/water partition coefficient (LogP) of [^18F]-MerTK-6. The resulting fractions were counted using a gamma counter. The reaction was repeated three times.
The LogP value of the [^18F]-MerTK-6 was calculated by the gamma particle counts of samples in the aqueous phase or 1-octanol phase by Automatic Gamma Counter 2480-0010 (PerkinElmer Instruments Inc., Waltham, MA, USA).
The [^18F]-MerTK-6 was collected after HPLC purification. After reformulation (pH value around 7.4), 20 µL [^18F]-MerTK-6 sample in saline was added to the mixture of 1 mL Mili-Q® water and 1 mL 1-octanol in a 5 mL Eppendorf tube. The tube was shacked thoroughly and then let stand still for 5 min. Then the 100 µL 1-octanol phase and 100 µL aqueous phase were subjected to a gamma counter separately and the gamma counts were recorded (n = 3). The LogP value was then calculated and expressed as a mean value± standard derivation.

[4] = system: B16F10 tumor-bearing mice; assay: PET imaging in B16F10 tumor-bearing mice; assay type: in vivo; settings: for uptake in kidney / uptake in liver / uptake in muscle / uptake in tumor: i.v., PET ROI, n = 3
Method: Evaluation of the PET agent [^18F]-MerTK-6 was performed on B16F10 tumor-bearing mice. At 30 min post-injection (p.i), the uptake in tumor, liver, kidney, and muscle was 4.65 ± 1.25, 14.79 ± 0.99, 10.42 ± 1.01, and 2.51 ± 0.48%ID/g, respectively. The uptake at 2 h p.i. was 4.79 ± 0.24, 9.72 ± 1.56, 5.34 ± 1.25, and 1.55 ± 0.23%ID/g, respectively. Overall, the tumor uptake was maintained at ~5%ID/g and the tumor to muscle contrast increased to 3.09 at 2 h p.i, compared with 1.86 at 0.5 h p.i.
All animal studies were reviewed and approved by The University of North Carolina at Chapel Hill Institutional Animal Care and Use Committee. The B16F10 tumor cell was obtained from the LCCC tissue culture facility (the University of North Carolina at Chapel Hill, Chapel Hill, NC, USA). The B16F10 tumor-bearing […] mouse model was prepared as described previously. Briefly, B16/F10 cells were subcutaneously injected on the right flank of C57BL/6 female mice (Jackson Laboratory). The tumor volume was measured daily. When the tumor size reached 100 mm^3, the mice were used for PET imaging studies.
B16F10 tumor-bearing mice (n = 3/group) were intravenously injected via the tail vein with tracers. At 30 min and 120 min post-injection, a 10-min static emission scan was acquired with a SuperArgus small-animal PET/CT scanner. The regions of interests (ROIs) were drawn over the tumor and other organs and calculated as %ID/g. The mean uptake and standard deviation were calculated.

SMILES	Ambit selectivity score S50 [1]	Ki [2]	logP [3]	tumor to muscle ratio ([4]; 0.5 h post-injection)	uptake in kidney ([4]; 30 min post-injection)	uptake in liver ([4]; 30 min post-injection)	uptake in muscle ([4]; 30 min post-injection)	uptake in tumor ([4]; 30 min post-injection)	tumor to muscle ratio ([4]; 2 h post-injection)	uptake in kidney ([4]; 2 h post-injection)	uptake in liver ([4]; 2 h post-injection)	uptake in muscle ([4]; 2 h post-injection)	uptake in tumor ([4]; 2 h post-injection)	tumor uptake (overall, maintained) ([4]; overall, 0.5 h to 2 h post-injection)
CCC[C@H](C)Nc1ncc2c(C3CCN(C(=O)c4cc(C)nc(C)c4)CC3)cn(C3CCC(O)CC3)c2n1 (some centres unmarked) [UNC5293]	0.041	190 pM	–	–	–	–	–	–	–	–	–	–	–	–
C[C@H](Nc1ncc2c(C3CCN(CC[18F])CC3)cn([C@H]3CC[C@H](O)CC3)c2n1)c1ccccc1 [[^18F]-MerTK-6]	–	–	1.56 ± 0.02	1.86	10.42 ± 1.01 %ID/g	14.79 ± 0.99 %ID/g	2.51 ± 0.48 %ID/g	4.65 ± 1.25 %ID/g	3.09	5.34 ± 1.25 %ID/g	9.72 ± 1.56 %ID/g	1.55 ± 0.23 %ID/g	4.79 ± 0.24 %ID/g	~ 5 %ID/g
